pIC50: −log10 of the molar value. Where “and” joins values, the source holds several entries; their conditions need not be identical. Equal entries are not always repeated. Where two headings read alike, the source gives them in different places.
Key:
[1] = system: EBV genome copy number in the Raji Burkitt lymphoma cell line; assay: Raji EBV genome copy number assay; type: cell-based, Epstein-Barr virus; conditions: six days, Raji cells, real time PCR EBV DNA (DS) relative to actin
Procedure: To further evaluate the ability of these compounds to inhibit the EBNA1 function required for EBV genome replication, we assayed their effect on EBV genome copy number in the Raji Burkitt lymphoma cell line (Fig. 5). Raji cells typically contain ∼100 copies of the EBV genome per cell. […] Therefore, we assessed the effects of HU, SC7, SC11, and SC19 on EBV copy number in Raji cells. Cells were treated with 10 µM SC7, SC11, SC19 or with 100 µM HU for six days. The EBV genome copy number was determined by real time PCR for EBV DNA (DS) relative to cellular actin DNA.
Raji cells (purchased from ATCC) were grown at 5×10^6 cells/ml in RPMI media supplemented with 10% FBS and 10 mM Streptomycin and 10 mm Penicillin. Test compounds were added to achieve a final concentration of 10 uM. Cells were grown at 37°C for three days and then passaged 1∶10 into fresh media with the same concentration of drug. After a second 3-day incubation cells were harvested and the DNA was isolated using ChIP Lysis Buffer followed by sonication, phenol∶chloroform extraction, and ethanol precipitation. Relative EBV DNA copy number was quantified by real-time PCR with primers for cellular actin and the EBV dyad-symmetry region, as described previously.

Zta [2] = molecular target: T1, Zta (Epstein-Barr virus, UniProt P03206); assay: Fluorescence polarization (FP) assay of Zta-DNA binding (specificity control); conditions: for pIC50: inhibitor 833 to 7 µM, 2-fold dilutions, 300 nM Zta, read-out: IC50, inhibition of Zta-DNA binding (FP, Fig. 3 panel B)
T1 construct: 300 nM ZTA full length purified recombinant protein; Hexa-His; made in house; host or cells: E. coli
T1 sequence (P03206 whole entry): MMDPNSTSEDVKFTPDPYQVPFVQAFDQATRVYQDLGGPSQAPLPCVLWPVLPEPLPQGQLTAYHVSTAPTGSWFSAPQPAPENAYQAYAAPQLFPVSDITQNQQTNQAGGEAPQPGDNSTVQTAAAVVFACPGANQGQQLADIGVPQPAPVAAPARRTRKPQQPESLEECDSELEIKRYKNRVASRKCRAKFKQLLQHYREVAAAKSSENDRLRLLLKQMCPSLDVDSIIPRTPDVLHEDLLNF
Procedure: (§1) The EBNA1 DNA binding domain (DBD) (aa 454–607) with a hexa-histidine amino-terminal fusion protein was expressed in E. coli and purified over Ni-NTA agarose according to manufacturers recommendations (Qiagen). The protein was purified from four liters of E. coli to generate ∼20 mg of highly purified EBNA1 protein, estimated to be >90% pure. Purified protein was then dialyzed into a buffer consisting of 200 mM NaCl, 20 mM, Tris-HCl pH 7.4 and 20% Glycerol. Hexa-His tagged Zta was purified from E. coli to near homogeneity, similar to EBNA1 protein. Purified Zta was dialyzed into 500 mM NaCl, Tris-HCl pH 7.4 and 20% Glycerol.
(§2) A reaction mix containing 200 mM NaCl, 20 mM Tris-Cl pH 7.4, 1 mM DTT, 10 ug/mL BSA, 10 nM Cy5 5′ modified EBNA1 (Cy5-GGGTAGCATATGCTATCTagatagcatatgctaccc) or ZTA (Cy5-CACTGACTCATTaatgagtcagtg binding site) oligonucleotide hairpins (purchased from IDT) and 246 nM EBNA1 DBD (aa 459–607) or 300 nM ZTA full length purified recombinant protein was incubated for 20 minutes at room temperature prior to dispensing (BioTek MicroFlo Select) 30 uL to each well of a 384 well black opaque microtiter plate containing the test compounds. Test plates were centrifuged at 165×g prior to fluoresence polarizaration measurements in an Envision Xciter multilable plate reader (Perkin Elmer) using a Cy5 FP 620 excitation and Cy5 FP P/S-pol 688 emission filters.
(§3) To determine IC50s, an 11- point series of 2-fold dilutions in DMSO was performed in duplicate starting at an initial concentration of 50 mM using a Janus Verispan (Perkin Elmer) to create a master plate. From this master plate 0.5 uL was transfered to black opaque 384 well Optiplate (Perkin Elmer) using a Janus MDT (Perkin Elmer) or to microfuge tubes by hand. The plate or microfuge tubes were assayed using the FP and EMSA protocols described above. […] The data was calculated as percentage of EBNA1 binding activity and then plotted versus the log of the concentration of inhibitor. Using GraphPad Prism 5.0 software the plotted data was fit with a Hill-Slope dose-response curve to calculate the relative IC50.

[3] = system: EBNA1 transcription activation of Cp; assay: EBNA1 transcription activation assay (OriP-Cp-Luciferase reporter) in HEK293T cells; type: cell-based, Epstein-Barr virus; conditions: 5 µM compound, 48 hrs, transfected HEK293T cells
Procedure: (§4) SC7, SC11, and SC19 were assayed for their ability to inhibit EBNA1 in two cell-based assays. Transcription activation of the EBV Cp promoter by EBNA1 is known to be essential for B-cell immortalization. We therefore assayed the effect of compounds to inhibit EBNA1 transcription activation of Cp using a luciferase reporter-based assay in transiently transfected HEK293T cells (Fig. 4). The luciferase reporter plasmid consisted of a ∼2 kb region of EBV containing both OriP and Cp fused upstream of the luciferase gene. Cotransfection of this plasmid with an EBNA1 expression plasmid produced a 4–5 fold increase in luciferase activity relative to control expression vector lacking EBNA1 (data not shown). Incubation of transfected cells with control vehicle DMSO had no effect on EBNA1 transcription activation. […] As a control for specificity, the same compounds were assayed for their inhibition of Zta transcription activation. Zta is a potent transcription activator of the EBV BHLF1 promoter. We therefore assayed these compounds for their effect on Zta transactivation of BHLF1 promoter fused to luciferase reporter gene.
(§5) HEK293T cells (purchased from ATCC) were seeded in 24-well plates at a density of 50,000 cells/well in DMEM media with 10% FBS. Following an 18 hr incubation at 37°C, cells were transfected using 2 µl of lipofectamine with 0.4 ug/well of a pCMV-FLAG-EBNA1, pCMV-FLAG-ZTA (N362) or a control pCMV-FLAG vector and 0.2 ug/well of either a Cp-Luciferase (EBNA1-reporter) or a HP-Luciferase (Zta-reporter) plasmid. All samples were cotransfected with 100 ng of Renilla expression vector as an internal control for transfection efficiency. After 6 hrs the transfection media was replaced and test compounds were added to achieve a final concentration of 5 uM. Cells were incubated at 37°C for 48 hrs and then harvested. Cells were lysed and prepared for analysis using the Promega Dual Reporter system and luminescence was measured using a Perkin Elmer Wallac Victor^2 1420 Multilabel reader.

Zta [4] = molecular target: T1, Zta; assay: EMSA of Zta-DNA binding (specificity control)
Procedure: (§6) An EMSA reaction buffer was prepared containing 20% Glycerol, 200 mM NaCl, 20 mM Tris-Cl pH 7.4, 1 mM DTT, 10 ug/mL BSA, 10 nM Cy5 oligonucleotide probe and with or without 246 nM EBNA1 DBD or 300 nM Zta full length purified recombinant protein. This solution was incubated for 20 minutes at room temperature to ensure binding. 30 uL of this solution was dispensed to eppendorf tubes containing 0.5 uL of a test compound in DMSO and mixed. Samples were then loaded onto a 6% polyacrylamide gel in 1/2X Tris-Borate buffer and electrophoresed for 90 min at 170 V. The gel was then scanned for flouresence using at Typhoon Imager (GE Healthcare).
as §3

[5] = system: Zta transactivation of BHLF1 promoter; assay: Zta transcription activation assay (BHLF1-Luciferase reporter) in HEK293T cells; type: cell-based, Epstein-Barr virus; conditions: for inhibition at 5 µM: human gammaherpesvirus 4, HEK-293T, 48 h, read-out: Inhibition of Zta transactivation
Procedure: as §4, §5

[6] = molecular target: T2, EBNA1 DNA binding domain (DBD) (Epstein-Barr virus, UniProt P03211); assay: Fluorescence polarization (FP) assay of EBNA1-DNA binding
T2 construct: 246 nM EBNA1 DBD (aa 459–607); hexa-histidine (N); made in house; host or cells: E. coli
T2 sequence (P03211 459-607): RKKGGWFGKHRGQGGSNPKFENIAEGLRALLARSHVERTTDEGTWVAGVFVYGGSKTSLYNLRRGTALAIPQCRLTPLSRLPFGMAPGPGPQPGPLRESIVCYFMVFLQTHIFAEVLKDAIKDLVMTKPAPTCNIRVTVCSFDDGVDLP
Procedure: as §1, §2, §3

[7] = molecular target: T2, EBNA1 DNA binding domain (DBD); assay: EMSA of EBNA1-DNA binding; conditions: Fig. 3
Procedure: as §6, §3

[8] = inhibitor 833 to 7 µM, 2-fold dilutions, 246 nM EBNA1 DBD, read-out: IC50, inhibition of EBNA1-DNA binding (FP, Fig. 3 panel A)
[9] = purified EBNA1 DBD, Cy5 DNA hairpin, read-out: IC50, inhibition of EBNA1-DNA binding in FP assay

SMILES | Reduction in EBV genome copy number ([1]; 100 µM HU) | Inhibition of Zta-DNA binding in FP assay (Zta [2]) | pIC50 (Zta [2]) | Inhibition of EBNA1 transcription activation [3] | Reduction in EBV genome copy number ([1]; 10 µM compound) | Inhibition of Zta-DNA binding in EMSA (Zta [4]) | inhibition at 5 µM [5] | pIC50 [6, 8] | pIC50 [6, 9] | Inhibition of Zta transactivation ([5]; 5 µM compound, 48 hrs, transfected HEK293T cells) | Inhibition of EBNA1-DNA binding in EMSA [7] | IC50, inhibition of EBNA1-DNA binding in FP assay ([6]; purified EBNA1 DBD, Cy5 DNA hairpin)
NC(=O)NO [HU, hydroxyurea, reference compound] | ~50% |  |  |  |  |  |  |  |  |  |  | 
CC(=O)Oc1ccc(N(C(C)=O)S(=O)(=O)c2ccc3ccccc3c2)cc1Br [SC7] |  | no significant inhibition | 3.52 | completely blocked | no apparent effect | no significant inhibition | ~60% | 4.62 | 4.00 to 4.70 and 4.64 |  |  | 
CC(=O)Nc1ccc(S(=O)(=O)N2c3ccccc3C(C)=CC2(C)C)cc1 [SC11] |  | no significant inhibition | 3.39 | completely blocked | 75–90% | no significant inhibition | ~60% | 4.04 | 4.00 to 4.70 |  |  | 
N#CCc1ccc(NC(=O)c2cc(Cl)ccc2NS(=O)(=O)c2cccc3nsnc23)cc1 [SC19] |  | no significant inhibition | ~3.68 | completely blocked | 75–90% | no significant inhibition |  | 4.31 | 4.00 to 4.70 and 4.31 | no detectable inhibitory effect |  | 
CC1CCc2c(sc3nc(SCc4ccc5c(c4)OCO5)nc(N)c23)C1 (centres unmarked) [SC27] |  |  | 3.71 |  |  |  |  | 3.26 |  |  | highly specific inhibition of EBNA1 | did not perform well in the FP assay

Source: article PMC2853575, “Discovery of Selective Inhibitors Against EBNA1 via High Throughput In Silico Virtual Screening” (PLoS ONE, 2010)
